Source: patent US8067589B2, “Heterocyclic compounds useful in treating diseases and conditions” (Pfizer Inc, priority 2007, dated 2011)

Molecular target: human recombinant H-PGDS (Homo sapiens, UniProt O60760)
Test: Fluoresecence Intensity h-PGDSTBA Enzyme Assay
Conditions: IC50, 5.0 μM PGH2, 2.5 mM L-Glutathione, 10 min preincubation, 4-parameter fit, highest inhibitor concentration typically 1 μM

Chain of human recombinant H-PGDS (O60760 whole entry): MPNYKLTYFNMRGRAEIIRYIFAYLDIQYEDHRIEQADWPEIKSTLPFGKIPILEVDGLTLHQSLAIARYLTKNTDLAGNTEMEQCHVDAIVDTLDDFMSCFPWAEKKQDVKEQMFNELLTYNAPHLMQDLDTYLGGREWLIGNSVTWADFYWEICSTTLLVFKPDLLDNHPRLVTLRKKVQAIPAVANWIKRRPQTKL

Compound: CS(=O)(=O)Nc1cccc(-c2ncc(C(=O)NC3CCN(Cc4ccccn4)CC3)cn2)c1 [Example 176, 2-{3-[(Methylsulfonyl)amino]phenyl}-N-[1-(pyridin-2-ylmethyl)piperidin-4-yl]pyrimidine-5-carboxamide]
- IC50: 2700 nM
